Laboratory results taken from patent US11124479B2, “Oligopyrroles as antagonists of islet amyloid polypeptide oligomerization” (New York University, priority 2017, dated 2021).

Columns and labels:
[1] = biological target: T1, islet amyloid polypeptide (IAPP) (Homo sapiens, UniProt P10997); assay: Seed-catalyzed ThT kinetic assay of IAPP aggregation; assay type: biochemical; settings: 15 μM IAPP; for relative t50 of seed catalyzed fibrillation: seed 5% v/v, lipid membrane DOPG:DOPC 3:7 750 μM; for factor of retardation of seed catalyzed aggregation kinetics: seed 10% v/v
T1 construct: IAPP is a 37 residue neuropancreatic hormone peptide; purchased Anaspec (Fremont, Calif.)
T1 sequence (P10997 34-70 limits assumed): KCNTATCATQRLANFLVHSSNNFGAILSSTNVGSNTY
Description: Seeds of IAPP were prepared by incubating 100 μM of IAPP in phosphate buffer at room temperature and aged for 24 hours. The formation of fibers was confirmed by TEM and ThT stain before storage at −20° C. until use. For the seed catalyzed aggregation kinetics of IAPP, 10% (based on the monomeric IAPP, v/v) seeds were added with ThT in phosphate buffer to the 96-well plate. The aggregation was initiated by the addition of fresh IAPP followed by gentle mixing. Kinetic assays in the presence of the compounds of the invention were conducted under the same conditions except that the compounds were added from a stock solution (1 mM or 10 mM in DMSO) to keep the final concentration of DMSO less than 1.0% (v/v).
The effect of ADH-101 on preformed IAPP oligomers has been investigated. ADH-101 was added during the lag phase of IAPP amyloid kinetics at 1 h and 3 h at an equimolar ratio (IAPP:ADH-101, 1:1, 10 μM IAPP). […] Additionally, ADH-101 has no effect on IAPP amyloid fibers. No change in ThT fluorescence intensity was observed when ADH-101 added to the fibers (FIG. 4, black arrow). […] The kinetics of IAPP fibrillation is dominated by the secondary nucleation which is reflected in the disappearance of the lag phase (FIG. 13). The t50 for the seed catalyzed (5%, v/v) aggregation kinetics of 15 μM IAPP (lipid membrane, DOPG:DOPC, 3:7, 750 μM) is 0.55±0.13 h which is […] faster than the de novo conditions (t50=1.55±0.20 h, FIGS. 13A and 13B). ADH-101 delays the seed catalyzed fibrillation by a relative t50 that is 1.8 fold and 2.6 fold at stoichiometric ratios of 1:1 and 2:1 (ADH-101:IAPP), respectively (FIGS. 13A and 13B). The t50 for the seed catalyzed (10%, v/v) aggregation of 15 μM IAPP is 0.86±0.19 h, which is ˜10 fold faster than the de novo conditions (t50=8.7±0.8 h, FIGS. 13C and 13D). ADH-101 retards the seed catalyzed aggregation kinetics of IAPP by factors of 1.4, 5.4, and 7.1 at stoichiometric ratios of 1:0.1, 1:0.5, and 1:1 (IAPP:ADH-101), respectively (FIGS. 13C and 13D). It is postulated that ADH-101 modulates IAPP conformation and attenuates its ability for oligomerization and fibrillation.

RIN-m cells = assay: Cell viability (CellTiter Blue), compound alone without IAPP; assay type: cell-based, Rat; settings: concentrations used for cell viability assays, no IAPP
Description: (§1) For cell toxicity assays, Rat insulinoma cells (RIN-m) were as they are considered to be a good model for pancreatic β-cells (see Huang, C.; Lin, C.; Haataja, L., Gurlo, T., Butler, A. E., Rizza, R. A., and Butler, P. C. Diabetes, 2007, 56, 2016-2027). Rat insulinoma RIN-m cells (ATCC, Manassas, Va.) were cultured in RPMI medium supplemented with 10% fetal bovine serum, 1% penicillin/streptomycin, […] sodium pyruvate, and […] β-mercaptoethanol (Life Technologies, Carlsbad, Calif.) at 37° C. and 5% CO2. Upon reaching ˜95% confluence, cells were washed with phosphate buffered saline (VWR, Radnor, Pa.), split using 0.25% Trypsin-EDTA (Life Technologies), and plated in clear 96-well plates (Corning, Glenview, Ill.) for cell viability assays.
(§2) Cell viability was measured using the CellTiter Blue (CTB, Promega, Madison, Wis.) fluorescence-based assay. Cells were plated at a density of 20,000 cells per well in 96 well plates. After 48 h of incubation at 37° C. and 5% CO2, cells were washed with 100 μL of PBS. […] Fluorescence of the dye was measured on a FlexStation3 microplate reader (Molecular Devices, Sunnyvale, Calif.). […] Percent viability was calculated as per the following equation: % Viability=100*[(<S>−<P>)/(<N>−<P>)]
(§3) Where <S>, <P>, and <N> are the average fluorescence intensities of the sample, positive control, and negative control, respectively.

[2] = test system: IAPP mediated cytotoxicity in Rat insulinoma cells (RIN-m); assay: Cell viability (CellTiter Blue), IAPP-mediated cytotoxicity; assay type: cell-based; settings: 6 μM IAPP, 48 h, IAPP alone ~68%
Description: as §1, §2, §3

Structure (SMILES): CCOC(=O)c1cc(NC(=O)c2cc(NC(=O)c3cc([N+](=O)[O-])cn3CC(C)C)cn2CC(C)C)cn1CCC(=O)O [ADH-101]
- relative t50 of seed catalyzed fibrillation ([1]; ratio 1:1 (ADH-101:IAPP)): 1.8 fold
- relative t50 of seed catalyzed fibrillation ([1]; ratio 2:1 (ADH-101:IAPP)): 2.6 fold
- factor of retardation of seed catalyzed aggregation kinetics ([1]; ratio 1:0.1 (IAPP:ADH-101)): 1.4
- factor of retardation of seed catalyzed aggregation kinetics ([1]; ratio 1:0.5 (IAPP:ADH-101)): 5.4
- factor of retardation of seed catalyzed aggregation kinetics ([1]; ratio 1:1 (IAPP:ADH-101)): 7.1
- toxicity to the cells (RIN-m cells): not toxic
- cell viability ([2]; ratio 1:1 (IAPP:ADH-101)): 100%
- cell viability ([2]; ratio 1:2 (IAPP:ADH-101)): 100%
